Experimental data from patent US5077207A, “Process for the production of L-threonine by fermentation” (Ajinomoto Co., Inc., priority 1989, dated 1991).

What was measured:
AJ 12360 (Mutant) = assay: Degree of AHV resistance (growth in glucose minimum liquid medium, absorbance); type: cell-based; conditions: [Brevibacterium] flavum, 24 h, read-out: Relative Degree of Growth (%)
Procedure: (§1) Thereafter, the degrees of AHV resistance of DPS deleted strains AJ 12360 and AJ 12361 were compared against their parent strains. The degree of AHV resistance was determined by cultivating the strain in the complete agar plate medium shown in Table 2 which also contained 1 g/l of DAP, […] of dipicolinic acid and further, in the case of AJ 12361 and its parent strain AC 664, 300 mg/l of L-histidine hydrochloride as a growth promoting substance, at 30° C. for 24 hours. The same medium dispensed in 3 ml into test tubes, was inoculated with the cells, and the inoculated media were cultured while being shaked for 24 hours. The absorbance of each medium was measured at 566 nm under conditions in which AHV was added or was not added to a given medium. To each glucose minimum liquid medium prepared were added, as growth promoting substances, 200 mg/l of L-histidine hydrochloride, in the case of AJ 12361 and AC 664 strains, and 500 mg/l each of DAP and lysine in the case of AJ 12360 and AJ 11955 strains. Especially, since DAP or DAP and lysine often promoted the growth of the DPS deleted or reduced strain, DAP was added to the liquid and plate media in the experiments described so far as needed. […]

AJ 12361 (Mutant) = assay: as above; type: cell-based; conditions: [Brevibacterium] flavum, 24 h, read-out: Relative Degree of Growth (%)
Procedure: as §1

Homoserine Dehydrogenase = Homoserine Dehydrogenase (Corynebacterium glutamicum, UniProt P08499); assay: Homoserine dehydrogenase feedback inhibition by threonine (crude enzyme solution); type: biochemical, Brevibacterium flavum; conditions: 1 mM threonine
Procedure: The amount of threonine produced in a given fermentation experiment was measured by the method described below, and the amount of lysine produced was measured by an acidic ninhydrin method. Further, the DPS activity was measured as follows. A medium obtained by adding 1 g/l of DAP to a medium useful for threonine production shown in Table 3 was dispensed in 20 ml amounts into 500 ml flasks which could be shaken. The flasks were sterilized by autoclaving. The medium compositions used were N50S30 for the AJ 12360 strain and N25S35 for the AJ 12361-2 and DA 110 strains. Each medium was inoculated with one loop of the strain which had been previously cultivated in a complete agar plate medium shown in Table 2. Each medium was supplemented with 1 g/l of DAP and 300 mg/l of L-histidine hydrochloride at 30° C. for 24 hours, and culturing was conducted at 30° C. for 40 hours in the shaking flasks. The cells were collected and washed with a 0.2% potassium chloride solution. These washed cells were suspended in a 50 mM potassium phosphate buffer (pH 7.0), and then were centrifugally separated after ultrasonic treatment in a supernatant. The supernatant was gel filtered through a Sephadex G25 column using the same buffer to prepare a crude enzyme solution. The activity was measured by carrying out the reaction at 30° C. for 10 minutes, terminating the reaction by adding 1 ml of 0.05 N hydrochloric acid thereto, and then measuring the change in absorbance at 340 nm by using a reaction mixture shown in Table 8 to determine the amount of pyruvic acid consumed. The control for this reaction was a DL-aspartate-β-semialdehyde-free system. The HD activity was measured as follows. The crude enzyme solution was prepared in a manner similar to that employed in the above-described DPS activity measurement, except that a 0.1 M potassium phosphate buffer containing 0.5 M potassium chloride (pH 7.0) was used as the buffer instead of the 50 mM potassium phosphate buffer. The activity measurement was conducted by measuring the reduction in absorbance at 340 nm in the reaction system shown in Table 9. The control for this reaction was a DL-aspartate-β-semialdehyde-free system. […]

Sequence of Homoserine Dehydrogenase (P08499 whole entry): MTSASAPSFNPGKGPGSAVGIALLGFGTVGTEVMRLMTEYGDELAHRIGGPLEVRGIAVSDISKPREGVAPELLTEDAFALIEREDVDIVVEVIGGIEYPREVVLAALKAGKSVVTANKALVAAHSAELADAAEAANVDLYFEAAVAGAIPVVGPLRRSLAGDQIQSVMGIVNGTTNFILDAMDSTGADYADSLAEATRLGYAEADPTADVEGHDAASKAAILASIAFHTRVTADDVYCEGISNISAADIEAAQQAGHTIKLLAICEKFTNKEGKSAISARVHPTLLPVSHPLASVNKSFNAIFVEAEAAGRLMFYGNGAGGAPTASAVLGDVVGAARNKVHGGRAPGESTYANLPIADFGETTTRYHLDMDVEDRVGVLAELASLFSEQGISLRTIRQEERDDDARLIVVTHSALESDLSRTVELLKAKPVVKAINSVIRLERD

| Compound | activity at 200000 µg/mL (AJ 12360 (Mutant)) | activity at 500000 µg/mL (AJ 12360 (Mutant)) | activity at 1 g/mL (AJ 12360 (Mutant)) | activity at 200000 µg/mL (AJ 12361 (Mutant)) | activity at 500000 µg/mL (AJ 12361 (Mutant)) | activity at 1 g/mL (AJ 12361 (Mutant)) | Homoserine Dehydrogenase Feedback Inhibition (%)** (Homoserine Dehydrogenase; enzyme from strain AC 664 (Parent strain)) | Homoserine dehydrogenase feedback inhibition by threonine (%) (Homoserine Dehydrogenase; enzyme from strain AJ 11955 (parent strain)) | Homoserine dehydrogenase feedback inhibition by threonine (%) (Homoserine Dehydrogenase; enzyme from strain AJ 12360 (mutant)) | Homoserine Dehydrogenase Feedback Inhibition (%)** (Homoserine Dehydrogenase; enzyme from strain AJ 12361 (Mutant)) | Homoserine Dehydrogenase Feedback Inhibition (%)** (Homoserine Dehydrogenase; enzyme from strain AJ12362 (Mutant)) | Homoserine Dehydrogenase Feedback Inhibition (%)** (Homoserine Dehydrogenase; enzyme from strain AJ12363 (Mutant)) | Homoserine Dehydrogenase Feedback Inhibition (%)** (Homoserine Dehydrogenase; enzyme from strain DA 110 (Mutant)) |
| --- | --- | --- | --- | --- | --- | --- | --- | --- | --- | --- | --- | --- | --- |
| CCC(O)C(N)C(=O)O (stereo not drawn) [AHV, α-amino-β-hydroxyvaleric acid] | 46.7% | 42.6% | 37.5% | 105% | 65.8% | 39.1% |  |  |  |  |  |  |  |
| C[C@@H](O)[C@H](N)C(=O)O [threonine, L-threonine] |  |  |  |  |  |  | 98% | 98% | 98% | 98% | 96% | 16% | 98% |
